Test in all cases: NCI-60 cell line screen, 48 h
Test [1] relates to UACC-62 melanoma.
The subject of test [2] is RXF 393 renal.
The test system of test [3] is OVCAR-5 ovarian.
For test [4], the system named is A498 renal.
For test [5], the system named is OVCAR-4 ovarian.
Test [6] deals with TK-10 renal.
The subject of test [7] is A549 NSCLC.
Test [8] deals with LOX IMVI melanoma.
The subject of test [9] is MALME-3M melanoma.
Test [10] concerns SW-620 colon.
The subject of test [11] is SF-295 CNS.

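Briefly, cells in 96-well plates were exposed to five compound concentrations for 48 h, and endpoints were estimated by linear interpolation. GI50 marks 50% less growth. Definition used: TGI = concentration required for complete inhibition of growth.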 A value given as a limit tells only on which side of the number the result lay.

Consider `Cc1ccc(S(=O)(=O)Nc2cccc3c(=O)[nH]cnc23)cc1`, for which the TGI in test [1], in test [2], in test [3], in [4], in [5] and in [6] was > 100 µM in each case. Besides, the TGI in test [7], in [8], in [9], in test [10] and in test [11] was > 100 µM each time.

As for `Cc1n(CC(C)C)c2c([n+]1C)C(=O)c1ccccc1C2=O`, the TGI amounted to 0.576 µM in test [1]; 6.19 µM in test [2]; 0.824 µM in [3]; 1.27 µM in [4]; 1.02 µM in test [5]; 3.38 µM in [6]. In addition, the TGI in test [7] was determined as 1.34 µM; in [8] it was 0.867 µM; in [9], 0.28 µM; in test [10], 1.4 µM; in test [11] it was 1.65 µM.

Take `Cc1ccc2c(ccc(/C=C/c3ccc(O)c4ncccc34)[n+]2C)c1`: the TGI in test [1] stood at 46.5 µM; in test [2] it was 37.8 µM; in test [3], 53.3 µM; in test [4], 26.5 µM; in test [5] it was 33.6 µM; in [6], 38.9 µM. Further, the TGI in test [7] came to 44.1 µM; in test [8] it was 30.2 µM; in test [9] it was 31.4 µM; in test [10], 28.4 µM; in test [11], 34.9 µM.

For the compound `COC1OC(CS(=O)(=O)O)C(O)C(O)C1O` (configuration not stated), the TGI in test [1], in test [2], in [3], in test [4], in test [5] and in test [6] was > 100 µM throughout. The TGI in test [8], in test [9], in test [10] and in test [11] was > 100 µM throughout.

Take `CC1(C)[C@@H]2CC[C@]1(C)[C@H](OC(=O)CSC#N)C2`: the TGI in test [1], in [2], in test [3], in [4], in [5] and in [6] was > 100 µM in each case. Also, the TGI is > 100 µM in test [7]; > 100 µM in test [8]; > 100 µM in test [9]; 35.4 µM in test [10]; > 100 µM in test [11].

In the case of `O=S(=O)(O)c1ccc(N=Nc2ccc3c(S(=O)(=O)O)cccc3c2O)c2ccccc12`, the TGI in [1], in test [2], in test [3], in test [4], in [5] and in [6] was > 100 µM each time. Besides, the TGI in test [7], in [8], in test [9], in test [10] and in test [11] was > 100 µM each time.

As for `N#C[S-].[La+3].c1cnc2c(c1)ccc1cccnc12.c1cnc2c(c1)ccc1cccnc12.c1cnc2c(c1)ccc1cccnc12`, the TGI in [1] came to 4.8 µM; in test [3], 12.4 µM; in test [4] it was 13.5 µM; in test [5] it was 16.8 µM; in [6], 25.4 µM; in test [7] it was 10.6 µM. For the same compound, the TGI is 13.3 µM in test [8], 7.06 µM in test [9], 27.1 µM in [10] and 7.94 µM in [11].

For `O=C1C=C(C2OC(CO)C(O)C2O)C(=O)N1` (configuration not stated), the TGI in test [1], in [2], in [3], in test [4], in test [5] and in test [7] was > 100 µM in each case. Moreover, the TGI in [8], in test [9], in [10] and in test [11] was > 100 µM each time.

Turning to `C=C1C(=O)OC2/C=C(\C(=O)O)CC/C=C(\C)CC(OC(=O)/C=C(\C)CC)C12` (configuration not stated), the TGI was 28.5 µM in test [1]; 27.5 µM in [2]; 26.6 µM in test [3]; 32 µM in [4]; 45.1 µM in test [5]; > 100 µM in test [6]. In addition, the TGI amounted to 31.6 µM in test [7]; 29.3 µM in [8]; 32.7 µM in [9]; 31.3 µM in test [10]; 31.3 µM in test [11].

In the case of `O=C(c1ccccc1)c1ccc2n[se]nc2c1`, the TGI in test [1], in test [2], in test [3], in test [4], in test [5] and in [6] was > 100 µM throughout. In addition, the TGI was > 100 µM in [7]; > 100 µM in test [8]; > 100 µM in [9]; > 100 µM in [10]; 37 µM in test [11].

Regarding `CCCC(C)c1ccc(OCCCCCCN2CCNCC2)cc1` (configuration not stated), the GI50 in test [1] was 1.95 µM; in [2], 1.55 µM; in test [3], 2.73 µM; in test [4], 2.43 µM; in test [6] it was 1.8 µM; in test [7], 1.9 µM. Moreover, the results for the GI50 in test [9], in test [10] and in test [11] were 1.93 µM, 1.72 µM and 1.82 µM, respectively. Moreover, the TGI is 3.71 µM in test [1]; 3 µM in [2]; 7.9 µM in [3]; 9.33 µM in test [4]; 3.47 µM in test [6]; 4.34 µM in [7]. Moreover, the values for the TGI in test [9], in [10] and in test [11] were 3.75 µM, 3.57 µM and 3.44 µM, respectively.

Take `OC(CC1CCCCN1)c1ccc2c(c1)oc1ccccc12` (configuration not stated): the TGI in test [1] is 44.7 µM; in test [2] it was > 100 µM; in test [3], > 100 µM; in test [4], 64.7 µM; in [5] it was > 100 µM; in [6] it was > 100 µM. Further, the TGI in test [7], in test [8], in test [9], in [10] and in test [11] was > 100 µM throughout.

In the case of `CN(C)/C=C/C(=CC=[N+](C)C)/C=C/N(C)C`, the TGI in test [1], in test [2], in test [3], in [4], in test [5] and in test [6] was > 100 µM each time. The TGI in test [7], in [8], in test [9], in [10] and in test [11] was > 100 µM each time.

For the origin of these results see PubChem BioAssay (NCI).
